Test [1] in a line: Antagonist activity at PAR1 in human platelets assessed as inhibition of thrombin-induced platelet aggregation.
Test [2] is described as follows: Antagonist activity at PAR1 in human platelets assessed as inhibition of haTRAP-induced platelet aggregation.

Consider `CCOC(=O)N[C@@H]1CC[C@@H]2[C@@H](C1)C[C@H]1C(=O)O[C@H](C)[C@H]1[C@H]2C=Cc1ccc(-c2cccc(F)c2)cn1` [Ethyl [(3aR,4aR,8aR,9aS)-9(S)-[(E)-2-[5-(3-fluorophenyl)-2-pyridinyl]ethenyl]dodecahydro-1(R)-methyl-3-oxonaphtho[2,3-c]furan-6(R)-yl]carbamate], for which the figures for the IC50 in test [1] and in test [2] were 47 nM and 25 nM, respectively.
